Assay results: ChEMBL document CHEMBL3399992, “Identification of anti-HIV agents with a novel benzo[4,5]isothiazolo[2,3-a]pyrimidine scaffold” (Bioorg Med Chem, 2015)
The source made the active and inactive calls. No cut-off for these calls is given here.

Legend:
[1] = system: Human immunodeficiency virus; test: Antiviral activity against HIV 3B assessed as inhibition of infection of NCK45-beta-Gal cells after 48 hrs; type: functional, organism-based; settings: Human immunodeficiency virus 1, 3B
[2] = Cytotoxicity against human NCK45 cells at 10 uM; type: cell-based; settings: nck45, 10 µM
[3] = system: Human immunodeficiency virus; test: Antiviral activity against HIV 3B assessed as prevention of early stage infection of NCK45-beta-Gal cells up to 48 hrs; type: functional, organism-based

For COc1ccc2c(c1)SN1CCCN=C21, the EC50 [1] was 580 nM and the Activity [2] was “Non-toxic”.

With c1cc(-c2ccc3c(c2)SN2CCCN=C32)ccn1 the EC50 [1] was 560 nM and the Activity [2] was “Non-toxic”.

With O=[N+]([O-])c1cccc(-c2ccc3c(c2)SN2CCCN=C32)c1 the EC50 [1] was 120 nM and the Activity [2] was “Non-toxic”.

In the case of c1ccc(-c2ccc3c(c2)SN2CCCN=C32)cc1, the EC50 [1] is reported as 300 nM and the Activity [2] is reported as “Non-toxic”.

In the case of Cc1ccc2c(c1)C1=NCCCN1S2, the EC50 [1] is reported as 850 nM and the Activity [2] is reported as “Non-toxic”.

For O=[N+]([O-])c1ccc2c(c1)SN1CCCN=C21, the EC50 [1] was 1790 nM and the Activity [2] was “Non-toxic”.

In the case of COc1cccc(-c2ccc3c(c2)SN2CCCN=C32)c1, the EC50 [1] is reported as 100 nM and the Activity [2] is reported as “Non-toxic”.

In the case of Brc1ccc2c(c1)C1=NCCCN1S2, the EC50 [1] is reported as 1010 nM and the Activity [2] is reported as “Non-toxic”.

In the case of c1cc(-c2ccc3c(c2)SN2CCCN=C32)cs1, the EC50 [1] is reported as 80 nM and the Activity [2] is reported as “Non-toxic”.

For Brc1ccc2c(c1)SN1CCCN=C21, the EC50 [1] was 220 nM and the Activity [2] was “Non-toxic”.

With Oc1ccc(-c2ccc3c(c2)SN2CCCN=C32)cc1 the EC50 [1] was 1280 nM and the Activity [2] was “Non-toxic”.

For c1coc(-c2ccc3c(c2)SN2CCCN=C32)c1, the inhibition [3] was “Active”, the EC50 [1] was 50 nM and the Activity [2] was “Non-toxic”.

For c1ccc2c3c(ccc2c1)C1=NCCCN1S3, the EC50 [1] was > 1000 nM and the Activity [2] was “Toxic”.

In the case of c1cc2c(cc1-c1ccc3c(c1)SN1CCCN=C31)OCO2, the EC50 [1] is reported as 160 nM and the Activity [2] is reported as “Non-toxic”.

In the case of c1cnn(-c2ccc3c(c2)SN2CCCN=C32)c1, the EC50 [1] is reported as 410 nM and the Activity [2] is reported as “Non-toxic”.

In the case of N=C1Sc2ccccc2C2=NCCCN12, the inhibition [3] is reported as “Active” and the EC50 [1] is reported as 300 nM.

With Oc1cccc(-c2ccc3c(c2)SN2CCCN=C32)c1 the EC50 [1] was 1470 nM and the Activity [2] was “Non-toxic”.

With c1ccc2c(c1)SN1CCCN=C21 the inhibition [3] was “Active”, the EC50 [1] was 290 nM and the Activity [2] was “Non-toxic”.

In the case of c1cn(-c2ccc3c(c2)SN2CCCN=C32)nn1, the EC50 [1] is reported as 420 nM and the Activity [2] is reported as “Non-toxic”.

In the case of COc1ccc2c(c1)C1=NCCCN1S2, the EC50 [1] is reported as 2110 nM and the Activity [2] is reported as “Non-toxic”.

For c1ccc(-c2ccc3c(c2)SN2CCCN=C32)nc1, the EC50 [1] was 340 nM and the Activity [2] was “Non-toxic”.

For FC(F)(F)c1ccc2c(c1)C1=NCCCN1S2, the EC50 [1] was 1780 nM and the Activity [2] was “Non-toxic”.

With COC(=O)c1cccc(-c2ccc3c(c2)SN2CCCN=C32)c1 the inhibition [3] was “Active”, the EC50 [1] was 50 nM and the Activity [2] was “Non-toxic”.

For COc1ccc(-c2ccc3c(c2)SN2CCCN=C32)cc1, the EC50 [1] was 90 nM and the Activity [2] was “Toxic”.

In the case of O=[N+]([O-])c1ccc(-c2ccc3c(c2)SN2CCCN=C32)cc1, the EC50 [1] is reported as 80 nM and the Activity [2] is reported as “Non-toxic”.

With COC(=O)c1ccc(-c2ccc3c(c2)SN2CCCN=C32)cc1 the EC50 [1] was 160 nM and the Activity [2] was “Non-toxic”.

With FC(F)(F)c1ccc2c(c1)SN1CCCN=C21 the EC50 [1] was 1280 nM and the Activity [2] was “Non-toxic”.

In the case of c1ccc(-c2ccc3c(c2)C2=NCCCN2S3)cc1, the EC50 [1] is reported as 560 nM and the Activity [2] is reported as “Non-toxic”.

For CC(=O)Nc1ccc2c(c1)SN1CCCN=C21, the EC50 [1] was > 10000 nM and the Activity [2] was “Non-toxic”.

With c1cncc(-c2ccc3c(c2)SN2CCCN=C32)c1 the EC50 [1] was 560 nM and the Activity [2] was “Non-toxic”.

With Brc1cccc2c1SN1CCCN=C21 the EC50 [1] was > 10000 nM and the Activity [2] was “Non-toxic”.

With c1ccc2cc(-c3ccc4c(c3)SN3CCCN=C43)ccc2c1 the EC50 [1] was 120 nM and the Activity [2] was “Non-toxic”.
